Consider one molecule from patent publication US20080107623A1, “Inhibitors of Hepatitis C Virus” (Bristol-Myers Squibb Company, priority 2006, published 2008).

In experiment [1] the target is T1, HCV NS3/4A protease complex, H77 strain (Hepatitis C virus genotype 1a, UniProt P27958, C1454S/C1711G).
T1 construct: recombinant HCV NS3/4A protease complex (amino acids 1027 to 1711) for these strains; made in house; host or cells: Escherichia coli BL21 (DE3), pET21b
Description: FRET peptide assay to monitor HCV NS3/4A proteolytic activity (H77 strain). The class given is biochemical, HCV genotype 1a. Conditions: read-out: IC50 against NS3/4A H77 strain. An excerpt: (§1) HCV NS3 protease complexes, derived from the BMS strain, H77 strain or J4L6S strain, were generated, as described below. These purified recombinant proteins were generated for use in a homogeneous assay (see below) to provide an indication of how effective compounds of the present disclosure would be in inhibiting HCV NS3 proteolytic activity.
(§2) The H77 and J4L6S strains were used for production of recombinant NS3/4A protease complexes. DNA encoding the recombinant HCV NS3/4A protease complex (amino acids 1027 to 1711) for these strains were manipulated as described by P. Gallinari et al. (see Gallinari P, Paolini C, Brennan D, Nardi C, Steinkuhler C, De Francesco R. Biochemistry. 38(17):5620-32, (1999)). Briefly, a three-lysine solubilizing tail was added at the 3′-end of the NS4A coding region. The cysteine in the P1 position of the NS4A-NS4B cleavage site (amino acid 1711) was changed to a glycine to avoid the proteolytic cleavage of the lysine tag. Furthermore, a cysteine to serine mutation was introduced by PCR at amino acid position 1454 to prevent the autolytic cleavage in the NS3 helicase domain. […]

Experiment [2] deals with T2, HCV NS3/4A protease complex, J4L6S strain (Hepatitis C virus genotype 1b, UniProt O92972, C1454S/C1711G).
T2 construct: recombinant HCV NS3/4A protease complex (amino acids 1027 to 1711) for these strains; made in house; host or cells: Escherichia coli BL21 (DE3), pET21b
T2 sequence (O92972 1027-1711 C1454S/C1711G, one chain of several): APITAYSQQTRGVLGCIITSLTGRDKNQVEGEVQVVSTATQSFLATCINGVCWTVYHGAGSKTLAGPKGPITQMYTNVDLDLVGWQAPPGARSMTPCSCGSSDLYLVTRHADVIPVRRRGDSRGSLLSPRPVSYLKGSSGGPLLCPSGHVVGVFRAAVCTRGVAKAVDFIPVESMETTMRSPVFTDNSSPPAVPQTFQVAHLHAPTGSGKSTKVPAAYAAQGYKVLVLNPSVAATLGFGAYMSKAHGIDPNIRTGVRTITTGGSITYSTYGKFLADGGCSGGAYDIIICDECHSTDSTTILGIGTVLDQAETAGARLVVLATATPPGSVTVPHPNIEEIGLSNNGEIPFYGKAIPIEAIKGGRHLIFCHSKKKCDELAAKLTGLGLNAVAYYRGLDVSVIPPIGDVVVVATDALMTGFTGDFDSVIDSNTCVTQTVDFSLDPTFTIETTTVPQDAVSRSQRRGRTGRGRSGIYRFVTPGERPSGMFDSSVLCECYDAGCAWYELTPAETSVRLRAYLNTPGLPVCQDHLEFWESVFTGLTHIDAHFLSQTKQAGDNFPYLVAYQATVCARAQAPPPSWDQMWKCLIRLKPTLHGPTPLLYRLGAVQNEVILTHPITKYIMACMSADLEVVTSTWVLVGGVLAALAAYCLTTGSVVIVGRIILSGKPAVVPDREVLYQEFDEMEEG
Description: FRET peptide assay to monitor HCV NS3/4A proteolytic activity (J4L6S strain). The experiment is classed as biochemical, HCV genotype 1b. Conditions: read-out: IC50 against NS3/4A J4L6S strain.
Source text: as §1, §2

T1 sequence (P27958 1027-1711 C1454S/C1711G, one chain of several): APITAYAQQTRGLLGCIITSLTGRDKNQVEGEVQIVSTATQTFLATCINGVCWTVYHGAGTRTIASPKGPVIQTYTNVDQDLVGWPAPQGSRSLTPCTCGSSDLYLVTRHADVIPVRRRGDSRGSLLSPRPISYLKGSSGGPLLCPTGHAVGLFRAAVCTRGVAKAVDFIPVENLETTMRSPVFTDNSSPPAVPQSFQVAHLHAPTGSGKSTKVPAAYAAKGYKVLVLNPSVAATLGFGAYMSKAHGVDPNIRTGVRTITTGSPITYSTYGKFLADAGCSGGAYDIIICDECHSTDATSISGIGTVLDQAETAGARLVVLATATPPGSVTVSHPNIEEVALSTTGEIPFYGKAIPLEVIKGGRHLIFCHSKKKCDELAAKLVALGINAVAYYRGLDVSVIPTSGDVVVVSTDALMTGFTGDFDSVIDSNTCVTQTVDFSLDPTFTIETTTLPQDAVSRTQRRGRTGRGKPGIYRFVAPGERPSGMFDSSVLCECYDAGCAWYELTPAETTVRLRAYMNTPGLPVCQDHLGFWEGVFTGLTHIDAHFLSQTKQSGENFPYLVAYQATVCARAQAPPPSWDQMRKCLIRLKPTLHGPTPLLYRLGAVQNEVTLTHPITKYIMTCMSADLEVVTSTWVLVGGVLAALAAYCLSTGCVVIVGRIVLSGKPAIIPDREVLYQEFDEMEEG

Take `COc1c(O[C@@H]2C[C@H]3C(=O)N[C@]4(C(=O)NS(=O)(=O)C5CC5)C[C@H]4/C=C\CCCCC[C@H](NC(=O)OC(C)(C)C)C(=O)N3C2)ccc2c(Cl)nccc12` [Compound 3]: the IC50 in experiment [1] stood at 0.6 nM; in experiment [2], 0.47 nM.
